# Measured values: patent US12384770B2, “Heterocyclic compound” (Takeda Pharmaceutical Company Limited, priority 2019, dated 2025)
# Target: T1, HDAC6 enzyme (Homo sapiens, UniProt Q9UBN7)
# T1 construct: HDAC6 enzyme prepared by transducing full length HDAC6 gene into Sf-9 insect cells; GST; purchased SignalChem; host or cells: Sf-9 insect cells
# T1 sequence (Q9UBN7 1-1215): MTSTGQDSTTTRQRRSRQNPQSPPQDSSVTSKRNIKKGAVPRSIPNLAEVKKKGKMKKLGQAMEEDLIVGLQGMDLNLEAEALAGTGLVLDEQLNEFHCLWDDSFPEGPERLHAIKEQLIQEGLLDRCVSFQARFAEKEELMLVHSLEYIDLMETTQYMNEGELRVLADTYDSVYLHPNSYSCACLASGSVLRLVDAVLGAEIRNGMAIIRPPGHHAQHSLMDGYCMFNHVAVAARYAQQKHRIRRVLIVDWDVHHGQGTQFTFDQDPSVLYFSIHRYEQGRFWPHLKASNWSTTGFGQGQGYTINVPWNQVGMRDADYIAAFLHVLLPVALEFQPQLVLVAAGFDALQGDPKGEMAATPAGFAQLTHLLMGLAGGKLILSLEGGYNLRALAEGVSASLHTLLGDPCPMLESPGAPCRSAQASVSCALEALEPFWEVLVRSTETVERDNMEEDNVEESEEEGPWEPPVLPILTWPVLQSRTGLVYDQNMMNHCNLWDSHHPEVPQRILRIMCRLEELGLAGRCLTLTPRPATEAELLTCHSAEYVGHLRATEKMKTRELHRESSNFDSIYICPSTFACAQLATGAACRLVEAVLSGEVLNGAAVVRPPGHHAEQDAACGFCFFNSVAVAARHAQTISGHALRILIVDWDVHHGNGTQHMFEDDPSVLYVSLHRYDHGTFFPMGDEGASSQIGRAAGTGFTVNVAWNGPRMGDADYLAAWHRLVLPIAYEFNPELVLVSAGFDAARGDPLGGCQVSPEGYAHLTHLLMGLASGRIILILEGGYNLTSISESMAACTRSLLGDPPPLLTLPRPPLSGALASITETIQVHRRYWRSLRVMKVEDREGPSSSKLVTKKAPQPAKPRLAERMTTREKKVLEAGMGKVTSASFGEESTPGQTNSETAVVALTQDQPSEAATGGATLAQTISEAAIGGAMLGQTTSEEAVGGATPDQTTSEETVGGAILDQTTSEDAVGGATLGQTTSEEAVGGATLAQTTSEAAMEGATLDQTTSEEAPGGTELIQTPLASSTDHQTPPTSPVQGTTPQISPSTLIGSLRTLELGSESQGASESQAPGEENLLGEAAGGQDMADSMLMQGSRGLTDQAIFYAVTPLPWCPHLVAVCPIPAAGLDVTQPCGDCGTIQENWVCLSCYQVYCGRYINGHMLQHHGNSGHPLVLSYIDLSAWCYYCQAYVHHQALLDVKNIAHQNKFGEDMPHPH
# Test: HDAC6 enzyme inhibitory assay (HDAC-Glo I/II Assay kit)
# Assay type: biochemical
# Details: wells without enzyme = 100% inhibition
# Method in brief: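 Full-length GST-purified HDAC6 from Sf-9 cells preincubated with compound 60 min at room temperature in Tris-HCl pH 7.5 buffer with MgCl2, KCl, NaCl, glutathione, Tween-20. Substrate-developer reaction 20 min, luminescence read; no-enzyme wells set as 100% inhibition.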
row,SMILES,HDAC6 inhibitory rate (%) (10 μM)
1,"O=C1c2cc(-c3nnc(C(F)F)o3)ccc2CN1[C@H](c1ccccn1)[C@@H](O)c1cccc(F)c1 (single isomer, unassigned) [Example 62, 6-[5-(difluoromethyl)-1,3,4-oxadiazol-2-yl]-2-[(1R*,2S*)-2-(3-fluorophenyl)-2-hydroxy-1-(pyridin-2-yl)ethyl]-2,3-dihydro-1H-isoindol-1-one]",100%

# Same assay, conditions: wells without enzyme = 100% inhibition, 10 µM
row,SMILES,HDAC6 inhibitory rate (%) (10 μM)
1,"O=C1c2cc(-c3nnc(C(F)F)o3)ccc2CN1[C@H](c1cccc(F)n1)[C@@H](O)c1ccccn1 (single isomer, unassigned) [Example 76, 6-[5-(difluoromethyl)-1,3,4-oxadiazol-2-yl]-2-[(1R*,2R*)-1-(6-fluoropyridin-2-yl)-2-hydroxy-2-(pyridin-2-yl)ethyl]-2,3-dihydro-1H-isoindol-1-one]",100%

# Same assay, conditions: wells without enzyme = 100% inhibition, read-out: HDAC6 inhibitory rate (%) (10 μM)
row,SMILES,inhibition at 10 µM
1,"O=C1c2cc(-c3nnc(C(F)F)o3)ccc2CN1[C@H](C1CC1)[C@@H](O)c1ccc(C(F)(F)F)nc1 (single isomer, unassigned) [Example 77, 2-{(1R*,2S*)-1-cyclopropyl-2-hydroxy-2-[6-(trifluoromethyl)pyridin-3-yl]ethyl}-6-[5-(difluoromethyl)-1,3,4-oxadiazol-2-yl]-2,3-dihydro-1H-isoindol-1-one]",100%
2,"O=C1c2cc(-c3nnc(C(F)F)o3)ccc2CN1[C@H](c1ccc(F)c(F)c1)[C@@H](O)c1ccccn1 (single isomer, unassigned) [Example 50, 6-[5-(difluoromethyl)-1,3,4-oxadiazol-2-yl]-2-[(1R*,2R*)-1-(3,4-difluorophenyl)-2-hydroxy-2-(pyridin-2-yl)ethyl]-2,3-dihydro-1H-isoindol-1-one]",99%
3,"O=C1c2cc(-c3nnc(C(F)F)o3)ccc2CN1[C@H](C1CC1)[C@@H](O)c1ccc(Cl)cn1 (racemic) [Example 65, 2-[(1RS,2RS)-2-(5-chloropyridin-2-yl)-1-cyclopropyl-2-hydroxyethyl]-6-[5-(difluoromethyl)-1,3,4-oxadiazol-2-yl]-2,3-dihydro-1H-isoindol-1-one]",98%
4,"O=C1c2cc(-c3nnc(C(F)F)o3)ccc2CN1[C@H](c1ccc(F)cc1)[C@@H](O)c1ccc(F)nc1 (racemic) [Example 58, 6-[5-(difluoromethyl)-1,3,4-oxadiazol-2-yl]-2-[(1RS,2SR)-1-(4-fluorophenyl)-2-(6-fluoropyridin-3-yl)-2-hydroxyethyl]-2,3-dihydro-1H-isoindol-1-one]",100%
5,"O=C1c2cc(-c3nnc(C(F)F)o3)ccc2CN1[C@H](C1CCC(F)(F)CC1)[C@@H](O)c1ccccn1 (racemic) [Example 81, 2-[(1RS,2RS)-1-(4,4-difluorocyclohexyl)-2-hydroxy-2-(pyridin-2-yl)ethyl]-6-[5-(difluoromethyl)-1,3,4-oxadiazol-2-yl]-2,3-dihydro-1H-isoindol-1-one]",100%
6,"O=C1c2cc(-c3nnc(C(F)F)o3)ccc2CN1[C@H](c1cnccn1)[C@@H](O)c1cccc(F)c1 (single isomer, unassigned) [Example 100, 6-[5-(difluoromethyl)-1,3,4-oxadiazol-2-yl]-2-[(1R*,2S*)-2-(3-fluorophenyl)-2-hydroxy-1-(pyrazin-2-yl)ethyl]-2,3-dihydro-1H-isoindol-1-one]",100%
7,"CCOc1ccc([C@H]([C@@H](O)c2ccc(F)c(F)c2)N2Cc3ccc(-c4nnc(C(F)F)o4)cc3C2=O)cn1 (racemic) [Example 53, 6-[5-(difluoromethyl)-1,3,4-oxadiazol-2-yl]-2-[(1RS,2SR)-2-(3,4-difluorophenyl)-1-(6-ethoxypyridin-3-yl)-2-hydroxyethyl]-2,3-dihydro-1H-isoindol-1-one]",100%
8,"O=C1c2cc(-c3nnc(C(F)F)o3)ccc2CN1[C@H](c1ccccn1)[C@@H](O)c1cccc(C(F)(F)F)n1 (single isomer, unassigned) [Example 119, 6-[5-(difluoromethyl)-1,3,4-oxadiazol-2-yl]-2-{(1R*,2R*)-2-hydroxy-1-(pyridin-2-yl)-2-[6-(trifluoromethyl)pyridin-2-yl]ethyl}-2,3-dihydro-1H-isoindol-1-one]",101%
9,"O=C1c2cc(-c3nnc(C(F)F)o3)ccc2CN1[C@H](C1CCOCC1)[C@@H](O)c1ccc(F)cc1 [Example 72, 6-[5-(difluoromethyl)-1,3,4-oxadiazol-2-yl]-2-[(1R,2S)-2-(4-fluorophenyl)-2-hydroxy-1-(oxan-4-yl)ethyl]-2,3-dihydro-1H-isoindol-1-one]",100%
10,"O=C1c2cc(-c3nnc(C(F)F)o3)ccc2CN1[C@H](c1ncccn1)[C@@H](O)c1cccc(F)c1 (single isomer, unassigned) [Example 68, 6-[5-(difluoromethyl)-1,3,4-oxadiazol-2-yl]-2-[(1R*,2S*)-2-(3-fluorophenyl)-2-hydroxy-1-(pyrimidin-2-yl)ethyl]-2,3-dihydro-1H-isoindol-1-one]",101%
11,"O=C1c2cc(-c3nnc(C(F)F)o3)ccc2CN1[C@H](c1cccnn1)[C@@H](O)c1cccc(Cl)c1 (single isomer, unassigned) [Example 122, 2-[(1R*,2S*)-2-(3-chlorophenyl)-2-hydroxy-1-(pyridazin-3-yl)ethyl]-6-[5-(difluoromethyl)-1,3,4-oxadiazol-2-yl]-2,3-dihydro-1H-isoindol-1-one]",100%
12,"O=C1c2cc(-c3nnc(C(F)F)o3)ccc2CN1[C@H](c1cc(F)c(F)c(F)c1)[C@@H](O)c1ccccn1 (racemic) [Example 15, 6-[5-(difluoromethyl)-1,3,4-oxadiazol-2-yl]-2-[(1RS,2RS)-2-hydroxy-2-(pyridin-2-yl)-1-(3,4,5-trifluorophenyl)ethyl]-2,3-dihydro-1H-isoindol-1-one]",99%
13,"O=C1c2cc(-c3nnc(C(F)F)o3)ccc2CN1[C@@H](c1ccccn1)[C@H](O)c1ccc(F)cn1 [Example 4, 6-[5-(difluoromethyl)-1,3,4-oxadiazol-2-yl]-2-[(1S,2S)-2-(5-fluoropyridin-2-yl)-2-hydroxy-1-(pyridin-2-yl)ethyl]-2,3-dihydro-1H-isoindol-1-one]",100%
14,"O=C1c2cc(-c3nnc(C(F)F)o3)ccc2CN1[C@@H](c1ccccn1)[C@@H](O)c1cccc(F)c1 (racemic) [Example 145, 6-[5-(difluoromethyl)-1,3,4-oxadiazol-2-yl]-2-[(1SR,2SR)-2-(3-fluorophenyl)-2-hydroxy-1-(pyridin-2-yl)ethyl]-2,3-dihydro-1H-isoindol-1-one]",99%
15,"O=C1c2cc(-c3nnc(C(F)F)o3)ccc2CN1[C@H](c1ccc(F)cn1)[C@H](O)c1ccccn1 (racemic) [Example 144, 6-[5-(difluoromethyl)-1,3,4-oxadiazol-2-yl]-2-[(1RS,2SR)-1-(5-fluoropyridin-2-yl)-2-hydroxy-2-(pyridin-2-yl)ethyl]-2,3-dihydro-1H-isoindol-1-one]",100%
16,"O=C1c2cc(-c3nnc(C(F)F)o3)ccc2CN1[C@H](c1ccc(F)nc1)[C@@H](O)c1ccc(F)cc1 (single isomer, unassigned) [Example 34, 6-[5-(difluoromethyl)-1,3,4-oxadiazol-2-yl]-2-[(1R*,2S*)-2-(4-fluorophenyl)-1-(6-fluoropyridin-3-yl)-2-hydroxyethyl]-2,3-dihydro-1H-isoindol-1-one]",100%
